Reference: article PMC10102027, “Helquat dyes targeting G-quadruplexes as a new class of anti-HIV-1 inhibitors” (Scientific Reports, 2023)
Entries after “also recorded” stand apart in the source; their conditions may differ.

Tests used:
HIV-1 (NL4-3 strain) = assay: CPE-based antiviral assay in HIV-1-infected MT-4 cells (XTT); type: cell-based; conditions: Human immunodeficiency virus 1, NL43, MT4, 120 h, cytopathic effect-based assay, MT-4 cells infected by HIV-1 (NL4-3 strain), 5 days post-infection
Description: Based on a facile [2 + 2 + 2]‐cycloisomerization strategy, a robust three‐step synthetic entry into a novel family of helical extended diquats (helquats) was developed. After a straightforward Knoevenagel condensation of the respective helquat parent with different aldehydes (Fig. 2A), more than 500 helquat-based compounds were synthesized and screened for anti-HIV-1 activity in an assay based on the inhibition of the virus-induced cytopathic effect in MT-4 cells, evaluated after 5 days post-infection by an XTT assay. In parallel with the screening, the XTT assay was also used to determine the cytotoxicity of all compounds (Fig. 2B; for more information on the synthesis and characterization of the compounds, see the Supplementary Information). […]
XTT screening. MT-4 cells were seeded in 80 µl of the RPMI without Phenol Red in the amount of 3x10^4 cells per well of a 96-well plate. 10 µl of tested compounds (500 µM at 5% DMSO) or controls (5% DMSO at PBS, AZT 1mM, SQV 100 µM) were added to the cells; after one-hour incubation at 37 °C, HIV-1 (NL4-3 strain) was added with MOI = 0.05 and the infected cells were cultivated for five days.
The viability of the cells was measured by the XTT cell viability and proliferation assay. Briefly, 50 µl of the XTT solution with the addition of PMS (both VWR) was added to the cultivation media and incubated in a humidified incubator maintained at 37 °C with 5% CO2 for four hours, after which absorbance at 560 nm was measured on a VICTOR plate reader (PerkinElmer). […]
For compounds selected as hits in the initial screening, the effective concentration that inhibits 50% of the viral activity (EC50) and the cytotoxic concentration that reduces the MT -4 cell viability by 50% (CC50) were determined. Viral activity was evaluated after five days as an HIV-1-induced cytopathic effect quantified by the XTT assay. Selected hits were tested at two-fold serial dilutions from 50 µM concentration, and the drug concentrations required to reduce the viral cytopathic effect by 50% (EC 50) as well as the drug concentrations that reduced MT-4 cell viability by 50% (CC50) were calculated by nonlinear regression using GraphPad Prism v.8.0.0 (GraphPad Software).

[1] = system: G-quadruplexes in the HIV-1 LTR (G4 LTR FRET oligonucleotide); assay: FRET melting assay; type: binding; conditions: 2 μM compound, 0.2 μM oligonucleotide; for Tm: 100 mM KCl, mean and standard error, three experiments; for ΔTm: average Tm minus average Tm of PBS
[2] = system: HIV-1 LTR G-quadruplex template (G4 LTR Stop); assay: Taq polymerase stop assay; type: biochemical; conditions: for Fold change, all regions (A, B and C) together: normalized against control; for Fold change: A (G-patch 6′) / Fold change: B (G-patch 6) / Fold change: C (G-patch 5): 2.5 µM, pixel intensity normalized against negative control; for G-quadruplex stabilization / stop band pattern: Taq polymerase pausing at G-patches, 1-5 μM
Description: To address specifically the positions in the HIV-1 promoter region that are affected by the binding of G4-stabilizing agents, we performed a Taq polymerase stop assay. The wild-type LTR oligonucleotide was extended at the […] to include a primer-annealing region and used as a template for a single-cycle Taq polymerase reaction. The elongation of the radioactively labelled primer was performed at 45 °C in the presence or absence of the tested compounds and controls.
A Taq polymerase stop assay was carried out as described in a previous study. Briefly, the primer (G4 LTR primer, Supplementary Table S1) was 5′-end labelled with [γ-^32P]ATP using T4 polynucleotide kinase at 37 °C for 30 min. The T4 polynucleotide kinase was then inactivated by incubation at 65 °C for 5 min. The radioactively labelled primer was column-purified and stored at − 20 °C for further use. The labelled primer (1.7 pmol) was annealed to the template (2.1 pmol) in the LiCaco buffer and extended with the Go Taq DNA polymerase (2U/reaction, Promega) at 45 °C for 45 min. Samples were incubated with G-quadruplex-ligands at 45 °C for 45 min before DNA polymerase addition. The reactions were stopped by a denaturing solution (80% formamide, 10% glycerol, 0.025% xylen cyanol, 0.025% bromphenol blue and 10 mM EDTA pH 8); extension products were separated on 15% denaturing gel and visualized by phosphorimaging. The pixel intensity of bands was calculated using 1D gel analysis in ImageQuant TL software version 8.1 (GE HealthCare) after automatic background subtraction by Rolling Ball method.

Row | Structure (SMILES) | EC50 (HIV-1 (NL4-3 strain)) [µM] | Tm [1] [°C] | ΔTm [1] [°C] | Fold change, all regions (A, B and C) together ([2]; 1 μM) | Fold change, all regions (A, B and C) together ([2]; 2.5 μM) | Fold change: A (G-patch 6′) [2] | Fold change: B (G-patch 6) [2] | Fold change: C (G-patch 5) [2] | Fold change, all regions (A, B and C) together ([2]; 5 μM) | G-quadruplex stabilization / stop band pattern [2]
1 | C(=C\c1cc(/C=C/c2ccc3c(c2)CCO3)[n+]2c(c1)-c1c(ccc3c1-c1cccc[n+]1CCC3)CCC2)/c1ccc2c(c1)CCO2 [Compound 14] | 2.7 | 64 ± 0.2 | 13 | 1.2 | 1.7 | 1.4 | 2.0 | 1.5 | 1.8 | stop bands only in G-patch 6
2 | COc1ccc2ccccc2c1/C=C/c1cc[n+]2c(c1)-c1c(c(C)c(C)c3c1-c1cc(/C=C/c4c(OC)ccc5ccccc45)cc[n+]1CC3)CC2 [Compound 15] | 2.74 | 70 ± 1.0 | 19 | 1.6 | 2.4 | 2.8 | 2.5 | 1.8 | 2.5 | strong stop bands also in G-patch 6′; also recorded: exhibit their stabilization effect even at 1 μM concentration
3 | Cn1cc(/C=C/c2cc(/C=C/c3cn(C)c4ccccc34)[n+]3c(c2)-c2c(ccc4c2-c2cccc[n+]2CCC4)CCC3)c2ccccc21 [Compound 12] | 2.68 | 79 ± 0.2 | 28 | 1.4 | 1.9 | 1.9 | 2.1 | 1.5 | 1.8 | exhibit their stabilization effect even at 1 μM concentration; also recorded: stop bands only in G-patch 6
